Experimental data as given in paper PMC12649225, “Machine Learning-Identified Potent Antimicrobial Peptides Against Multidrug-Resistant Bacteria and Skin Infections” (Antibiotics, 2025).
≈ marks a conversion by molar mass, not a printed value. Read-outs that look alike come from different tables or passages of the source. No end group written: not given here.

Key:
[1] = test system: S. aureus JAR060131; format: cell-based; details: for LC99.9 S. aureus JAR060131 50% Plasma 2 h / LC99.9 S. aureus JAR060131 RPMI 2 h: JAR060131, 2 h
Description: (§1) The bacterial strains used in this study included S. aureus JAR060131 [54] and the MDR ESKAPE pathogens Enterococcus faecium LUH15122, S. aureus LUH14616, Klebsiella pneumoniae LUH15104, A. baumannii RUH875 [55], Pseudomonas aeruginosa LUH15103, Enterobacter cloacae LUH15114, and the colistin-resistant Escherichia coli LUH15117. Before each experiment, bacteria from frozen stocks were cultured at 37 °C for 18–24 h on sheep blood agar plates (BioMérieux, Marcy-l’Étoile, France). All strains were then cultured from colonies either in tryptic soy broth (TSB; Oxoid, Basingstoke, UK) for A. baumannii, S. aureus, and E. faecium, or in brain heart infusion broth (BHI; Oxoid) for K. pneumoniae, P. aeruginosa, E. cloacae, and E. coli at 37 °C with shaking at 120 rpm for 18–24 h. Subsequently, bacteria were cultured to mid-logarithmic phase in the media described above at 37 °C with shaking at 120 rpm for 3 h. Bacteria were then washed twice with PBS and diluted to the required inoculum suspension concentration in Roswell Park Memorial Institute (RPMI)-1640 medium containing 20 mM HEPES and L-glutamine but without sodium bicarbonate (Sigma-Aldrich; hereafter referred to as RPMI), based on optical density at 620 nm. RPMI was selected because it supports bacterial growth without impairing AMP activity.
(§2) Bactericidal activity was assessed as described by de Breij et al.. Briefly, mid-logarithmic phase bacterial cultures were diluted to a final concentration of 1 × 10^7 colony-forming units (CFU)/mL in RPMI. Then, 10 µL was added to a final volume of 100 µL in RPMI (final concentration: 1 × 10^6 CFU/mL). Cultures were exposed to peptides either in RPMI or RPMI supplemented with 50% (v/v) human plasma (hereafter referred to as 50% plasma), obtained from four healthy volunteers after informed consent, frozen after collection, and pooled (Sanquin, Amsterdam, The Netherlands). Assays were performed in duplicate using round-bottom polypropylene microtiter plates (Costar, Arlington, VA, USA) and repeated three times. In the initial screening phase (Table 1, Table 2 and Table S1), peptide solutions of 1, 10, and 100 μM (final concentration) were tested against A. baumannii RUH875 and S. aureus JAR060131 in RPMI and in 50% plasma. After this selection process, two lead candidates, their RI variants, and reference peptides were tested with a final concentration range of 0.12 to 120 µM (two-fold dilutions) in RPMI and in 50% plasma (Table 3). The peptides were also tested against ESKAPE pathogens, with Synthetic Antimicrobial and Antibiofilm Peptide (SAAP)-148 as a reference peptide (Table 4).RPMI or 50% plasma served as no-treatment controls. After 2 and 18 h of incubation at 37 °C with shaking at 120 rpm in a humidified environment, the numbers of viable bacteria were quantified. Bactericidal activity was expressed as the lethal concentration 99.9% (LC99.9), defined as the lowest peptide concentration that killed ≥99.9% of bacteria within 2 h (LC99.9_2h) or 18 h (LC99.9_18h) compared to the initial inoculum.

[2] = test system: A. baumannii RUH875; format: cell-based
Description: as §1, §2

[3] = test system: A. baumannii RUH875 biofilm; assay: Biofilm killing; format: cell-based, Acinetobacter baumannii; details: for A. baumannii biofilm killing, 24 h treatment (in words): up to 120 µM; for Concentration achieving significant biofilm killing of A. baumannii: at any treatment time (2 h, 24 h), tested up to 120 µM
Description: (§3) Mid-logarithmic phase cultures of A. baumannii RUH875 or S. aureus JAR060131 were diluted to 1 × 10^8 CFU/mL in RPMI supplemented with 1% glucose. A total of 100 μL of each suspension was added to flat-bottom polystyrene 96-well microplates (Costar) and incubated under static conditions at 37 °C in a humidified atmosphere for 24 h to allow biofilm formation. After 24 h, planktonic bacteria were removed, and wells were carefully washed with 100 μL PBS [60]. […] Control samples were exposed to 100 μL of PBS only.
(§4) Biofilms were treated at 37 °C for either 2 or 24 h. […] Plates were sealed and sonicated for 5 min (Elmasonic, Singen, Germany; 45 kHz) at room temperature to dislodge adherent bacteria. […] Quantitative cultures were performed by plating serial 10-fold dilutions on sheep blood agar, and results were expressed as log10 CFU per well. The lower limit of detection was three CFU. Each condition was tested in six replicates.

[4] = test system: S. aureus JAR060131 biofilm; assay: Biofilm killing; format: cell-based, Staphylococcus aureus; details: for Concentration giving ≥3-log reduction of S. aureus biofilm CFU within 24 h / S. aureus biofilm killing, 24 h treatment (in words): 24 h treatment; for Concentration giving ≥3-log reduction of S. aureus biofilm CFU within 24 h: >3 log for BP2 and pexiganan; for S. aureus biofilm killing, 24 h treatment (in words): up to 120 µM
Description: as §3, §4

[5] = test system: BJ human skin fibroblast cells; assay: LDH leakage assay (membrane integrity); details: lowest concentration causing >30% LDH leakage; BJ fibroblasts; 24 h; DMEM with 2% FBS; 0.05-60 µM
Description: (§5) BJ human skin fibroblast cells (ATCC CRL-2522; RRID: CVCL_3653; LGC Standards, Germany (September 2023)) were cultured in Dulbecco’s Modified Eagle Medium (DMEM; Gibco, Waltham, MA, USA) supplemented with 10% (v/v) foetal bovine serum (FBS; Sigma-Aldrich) and 1% (v/v) penicillin/streptomycin (pen/strep; Gibco). Cell suspensions (5 × 10^5 cells/mL) were seeded into 96-well plates (100 μL/well; Thermo Scientific, Waltham, MA, USA) and allowed to adhere for 24 h. Monolayers were then exposed to two-fold serial dilutions of GDST peptides, their RI variants, and reference peptides (final concentrations: 0.05 to 60 µM) in fresh DMEM with 2% (v/v) FBS for 24 h at 37 °C in a humidified atmosphere with 5% CO2.
(§6) Cell viability and membrane integrity were assessed using the water-soluble tetrazolium salt (WST-1; Roche, Basel, Switzerland) assay and the lactate dehydrogenase (LDH; Abcam, Cambridge, UK) assay, respectively, according to manufacturer instructions. Results were expressed as percentages of metabolic activity and LDH leakage relative to untreated control cells and the positive lysis control, respectively. The cytotoxic concentration was defined as the lowest peptide concentration causing <70% metabolic activity and >30% LDH leakage. All experiments were performed in triplicate.

[6] = test system: BJ human skin fibroblast cells; assay: WST-1 metabolic activity assay (cell viability); details: lowest concentration causing <70% metabolic activity (WST-1); BJ fibroblasts; 24 h; DMEM with 2% FBS; 0.05-60 µM
Description: as §5, §6

[7] = test system: S. aureus JAR060131; assay: microbe, parasite or virus in culture; format: cell-based, Staphylococcus aureus; details: Staphylococcus aureus
Description: (§7) The potential for resistance development to GDST-038, GDST-045, and their RI variants was assessed as described by Habets and Brockhurst. Resistance development to the antibiotics rifampicin and ciprofloxacin (both from Sigma-Aldrich) was evaluated for comparison. Briefly, 10 μL of a mid-logarithmic phase culture of A. baumannii RUH875 or S. aureus JAR060131 was added to 90 μL of peptide (final concentrations: 0.23 to 120 μM) or antibiotic (final concentrations: 0.03 to 256 μg/mL) solution in RPMI, in 96-well polypropylene round-bottom plates (Costar). All incubations were performed in quadruplicate. Plates were sealed with breathable seals (Greiner) and incubated at 37 °C with shaking at 120 rpm in a humidified environment for 18 h (S. aureus) or 48 h (A. baumannii).
(§8) The minimum inhibitory concentration (MIC), defined as the lowest concentration that inhibited visible bacterial growth, was then determined. Subsequently, 2 μL from the 0.5-fold MIC condition was transferred to fresh medium containing a concentration series ranging from 0.5- to 8-fold the new MIC. This procedure was repeated over 22 consecutive passages to monitor resistance development.

[8] = test system: A. baumannii RUH875; assay: microbe, parasite or virus in culture; format: cell-based, Acinetobacter baumannii; details: for MIC: Acinetobacter baumannii
Description: as §7, §8

[9] = RPMI, 18 h, median of three independent experiments

In the case of “GIGKFLKKAKKFGKAFVKILKK-NH2 (C-terminus assumed) [Pexiganan, reference compound]”, the “LC99.9 S. aureus JAR060131 50% Plasma 2 h” value [1] was 7.50 µM, the “LC99.9 S. aureus JAR060131 RPMI 2 h” value [1] was 0.47 µM and the “LC99.9 S. aureus JAR060131 RPMI 18 h” value ([1]; JAR060131, 18 h) was 0.23 µM. For the same compound, the “LC99.9 A. baumannii RUH875 50% Plasma 2 h” value ([2]; RUH875, 2 h) was 0.23 µM, the “LC99.9 A. baumannii RUH875 RPMI 18 h” value ([2]; RUH875, 18 h) was 0.47 µM and the “Concentration killing ≥3 log CFU of A. baumannii biofilm within 2 h” value ([3]; 24 h biofilm, 2 h treatment in PBS, 1.88-120 μM, vs untreated biofilm) was at least 30 µM. The “A. baumannii biofilm killing, 24 h treatment (in words)” value [3] was “not sustained after 24 h” and the “Concentration giving ≥3-log reduction of S. aureus biofilm CFU within 24 h” value [4] was at least 30 µM.
“LRAMCIKWWSGKHPK [TC84, reference compound]” was tested, and the “LC99.9 S. aureus JAR060131 50% Plasma 2 h” value [1] was 7.5 µM, the “LC99.9 S. aureus JAR060131 RPMI 2 h” value [1] was 7.5 µM and the “LC99.9 S. aureus JAR060131 RPMI 18 h” value ([1]; JAR060131, 18 h) was 7.5 µM. The “LC99.9 A. baumannii RUH875 50% Plasma 2 h” value ([2]; RUH875, 2 h) was 3.75 µM, the “LC99.9 A. baumannii RUH875 RPMI 18 h” value ([2]; RUH875, 18 h) was 3.75 µM and the “Concentration achieving significant biofilm killing of A. baumannii” value [3] was over 120 µM. For the same compound, the “S. aureus biofilm killing, 24 h treatment (in words)” value [4] was “did not exhibit significant biofilm-killing effects”.
`CC[C@H](C)[C@H](NC(=O)[C@H](CCCCN)NC(=O)[C@H](CCC(=O)O)NC(=O)[C@H](CCCCN)NC(=O)[C@H](CO)NC(=O)[C@H](CCCCN)NC(=O)[C@H](CCCNC(=N)N)NC(=O)[C@H](Cc1ccccc1)NC(=O)[C@H](Cc1ccccc1)NC(=O)[C@H](CC(=O)O)NC(=O)CNC(=O)[C@H](CC(C)C)NC(=O)[C@@H](N)CC(C)C)C(=O)NCC(=O)N[C@@H](CCCCN)C(=O)N[C@@H](CCC(=O)O)C(=O)N[C@@H](Cc1ccccc1)C(=O)N[C@@H](CCCCN)C(=O)N[C@@H](CCCNC(=N)N)C(=O)N[C@H](C(=O)N[C@H](C(=O)N[C@@H](CCC(N)=O)C(=O)N[C@@H](CCCNC(=N)N)C(=O)N[C@H](C(=O)N[C@@H](CCCCN)C(=O)N[C@@H](CC(=O)O)C(=O)N[C@@H](Cc1ccccc1)C(=O)N[C@@H](CC(C)C)C(=O)N[C@@H](CCCNC(=N)N)C(=O)N[C@@H](CC(N)=O)C(=O)N[C@@H](CC(C)C)C(=O)N[C@H](C(=O)N1CCC[C@H]1C(=O)N[C@@H](CCCNC(=N)N)C(=O)N[C@H](C(=O)N[C@@H](CCC(=O)O)C(=O)N[C@@H](CO)C(=O)O)[C@@H](C)O)C(C)C)[C@@H](C)CC)C(C)C)[C@@H](C)CC` [LL-37, reference compound] was tested, and the “Cytotoxicity LDH Leakage >30%” value [5] was 7.5 µM, the “LC99.9 S. aureus JAR060131 RPMI 18 h” value [1, 9] was over 120 µM and the “LC99.9 A. baumannii RUH875 50% Plasma 2 h” value ([2]; 50% plasma, 2 h, median of three independent experiments) was 60 µM. For the same compound, the “LC99.9 A. baumannii RUH875 50% Plasma 18 h” value ([2]; 50% plasma, 18 h, median of three independent experiments) was 60 µM, the “LC99.9 A. baumannii RUH875 RPMI 2 h” value ([2]; RPMI, 2 h, two-fold dilutions 0.12-120 µM, median of three independent experiments) was 1.88 µM and the “LC99.9 A. baumannii RUH875 RPMI 18 h” value [2, 9] was 1.88 µM. For the same compound, the “Concentration achieving significant biofilm killing of A. baumannii” value [3] was over 120 µM, the “S. aureus biofilm killing, 24 h treatment (in words)” value [4] was “did not exhibit significant biofilm-killing effects” and the “Cytotoxicity Metabolic Activity <70%” value [6] was 15 µM.
With `CO[C@H]1/C=C/O[C@@]2(C)Oc3c(C)c(O)c4c(O)c(c(/C=N/N5CCN(C)CC5)c(O)c4c3C2=O)NC(=O)/C(C)=C\C=C\[C@H](C)[C@H](O)[C@@H](C)[C@@H](O)[C@@H](C)[C@H](OC(C)=O)[C@@H]1C` [rifampicin, reference compound] the MIC ([7]; JAR060131, read-out: MIC S. aureus after 22 passages) was 4100 mg/L (≈ 4980 µM) and the MIC ([7]; JAR060131, read-out: MIC S. aureus before passaging) was 0.25 mg/L (≈ 0.304 µM).
In the case of `O=C(O)c1cn(C2CC2)c2cc(N3CCNCC3)c(F)cc2c1=O` [ciprofloxacin, reference compound], the MIC ([8]; RUH875, read-out: MIC A. baumannii after 22 passages) was 64 mg/L (≈ 193 µM), the MIC ([8]; RUH875, read-out: MIC A. baumannii before passaging) was 0.5 mg/L (≈ 1.51 µM) and the “MIC increase in A. baumannii after 22 passages” value ([8]; relative to first passage) was 128 fold.
With “GKWKLFKKAFKKFLKILAC [BP2, reference compound]” the “Cytotoxicity LDH Leakage >30%” value [5] was 1.88 µM, the “A. baumannii biofilm killing, 24 h treatment (in words)” value [3] was “complete eradication” and the “Concentration giving complete eradication of S. aureus biofilm within 24 h” value ([4]; 24 h biofilm, 24 h treatment in PBS) was at least 60 µM. For the same compound, the “Concentration giving ≥3-log reduction of S. aureus biofilm CFU within 24 h” value [4] was at least 30 µM and the “Cytotoxicity Metabolic Activity <70%” value [6] was 0.47 µM.
